Reference: patent US20060177444A1, “Concomitant drug as therapeutic agent for inflammatory bowel disease” (priority 2003, published 2006)

Test system: male Balb/c mice
Assay: TNBS-induced experimental colitis in mice, lesion length of the colon
Assay type: in vivo
Details: for improvement of colitis compared with combination administration, in words: single administration at a dose higher than that in the combination administration
Procedure: A total of 0.08 ml of a 1:1 (v/v) mixture of 10% picrylsulfonic acid (TNBS) solution and ethanol was administered to anesthetized male Balb/c mice (Charles River Japan, Inc., Yokohama, Japan) according to previous reports (J Exp Med 2001; 193: p 827-38, J Exp Med 2001; 193: p 25-34) to thereby induce experimental colitis. The colon (large intestine) was sampled two days later, and the length of a flare site accompanied with ulcer or hyperplasia near to the lumen was measured and was defined as the lesion length. The inhibition (%) was calculated from the average lesion length of a treated group, compared with the average lesion length of a control group. The test compound suspended in a 0.5% solution of methylcellulose was orally administered to the mice via sonde once a day from two days before the beginning of colitis induction.

| SMILES | Inhibition (%) of average lesion length (Compound 1 0.3 mg/kg/day, oral, once a day) [%] | Inhibition (%) of average lesion length (Compound 1 1 mg/kg/day, oral, once a day) [%] | Inhibition (%) of average lesion length (Compound 1 3 mg/kg/day, oral, once a day (Table 2)) [%] | Inhibition (%) of average lesion length (Compound 1 10 mg/kg/day, oral, once a day) [%] | Inhibiton (%) of average lesion length (Table 5: Compound 1 3 mg/kg/day alone) [%] | improvement of colitis, in words (single administration) | improvement of colitis compared with combination administration, in words | Inhibition (%) of average lesion length (Rosiglitazone 1 mg/kg/day, oral, once a day, single administration) [%] | Inhibition (%) of average lesion length (Rosiglitazone 10 mg/kg/day, oral, once a day, single administration) [%] | Inhibiton (%) of average lesion length (Sulfasalazine 100 mg/kg/day, oral, single administration (Table 3)) [%] | Inhibiton (%) of average lesion length (Sulfasalazine 300 mg/kg/day, oral, single administration) [%] | Inhibiton (%) of average lesion length (Table 5: Sulfasalazine 100 mg/kg/day alone) [%] |
| --- | --- | --- | --- | --- | --- | --- | --- | --- | --- | --- | --- | --- |
| CC(C)O[C@@H](Cc1cccc(CNC(=O)OCc2cccc(OC(F)(F)F)c2)c1)C(=O)O [Compound 1, 3-(3-{[3-trifluoromethoxybenzyloxycarbonylamino]methyl}phenyl)-2(S)-isopropoxypropanoic acid] | 8 | 21 | 38 | 34 | 29 | partially improves colitis | improves colitis less effectively | – | – | – | – | – |
| CN(CCOc1ccc(CC2SC(=O)NC2=O)cc1)c1ccccn1 (centres unmarked) [Rosiglitazone, rosiglitazone] | – | – | – | – | – | – | – | 23 | 37 | – | – | – |
| O=C(O)c1cc(N=Nc2ccc(S(=O)(=O)Nc3ccccn3)cc2)ccc1O [Sulfasalazine, 2-hydroxy-5-[[4-[(2-pyridinylamino)sulfonyl]phenyl]-azo]benzoic acid] | – | – | – | – | – | partially improves colitis | improves colitis less effectively | – | – | 40 | 35 | 43 |
